Structures can show the parent of a compound that is named as a salt.
Columns and labels:
[1] = test system: interferon regulatory factor 3 (IRF3) in HCT116-Dual cells; assay: HCT116-Dual Cell Luciferase Assay (ISG54 promoter, IRF3 activity); assay type: cell-based; settings: ENPP1 inhibitor usually 10 μM plus cGAMP 10 μM, 48 hours, Lucia luciferase
Text: HCT116-Dual™ cells express genes encoding luciferase secreted under the control of the interferon-stimulated gene 54 (ISG54) promoter along with five interferon-stimulated response elements. The HCT116-Dual™ cell line was used to measure and monitor the activity of interferon regulatory factor 3 (IRF3), which induces production of type I interferon and relates to downstream signaling, and Lucia secreted in the culture medium was used to generate luminescence in a luciferase reaction.
HCT116-Dual™ cells were cultured at 2×10^4 cells/well (93.4 μL) in a 96-well plate for one day in a DMEM medium containing 10% FBS and 25 mM HEPES (pH 7.2-7.5). The cells were treated with 3.3 μL of ENPP1 inhibitor (usually 10 μM) and then 3.3 μL of cGAMP (10 μM) to set the final volume to 100 μL (The final fraction of DMSO was 0.1%). The cells treated with ENPP1 inhibitor and cGAMP were cultured at 37° C. for 48 hours and 50 μL of Quanti-Luc reaction solution was added to 20 μL of cell culture medium to measure luciferase activity. The increase in interferon regulatory factor 3 (IRF3) by the compound compared to cGAMP was determined as fold.

[2] = target: T1, human recombinant ENPP1 enzymes (Homo sapiens, UniProt P22413); assay: ENPP1 Enzyme Assay with cGAMP Substrate (AMP-Glo); assay type: biochemical; settings: human recombinant ENPP1 3 ng/reaction, cGAMP 5 μM, 37° C. 90 minutes, average of two or more tests; read-out: Enzymatic activity IC50
T1 construct: purchased R & D systems
T1 sequence (P22413 1-925): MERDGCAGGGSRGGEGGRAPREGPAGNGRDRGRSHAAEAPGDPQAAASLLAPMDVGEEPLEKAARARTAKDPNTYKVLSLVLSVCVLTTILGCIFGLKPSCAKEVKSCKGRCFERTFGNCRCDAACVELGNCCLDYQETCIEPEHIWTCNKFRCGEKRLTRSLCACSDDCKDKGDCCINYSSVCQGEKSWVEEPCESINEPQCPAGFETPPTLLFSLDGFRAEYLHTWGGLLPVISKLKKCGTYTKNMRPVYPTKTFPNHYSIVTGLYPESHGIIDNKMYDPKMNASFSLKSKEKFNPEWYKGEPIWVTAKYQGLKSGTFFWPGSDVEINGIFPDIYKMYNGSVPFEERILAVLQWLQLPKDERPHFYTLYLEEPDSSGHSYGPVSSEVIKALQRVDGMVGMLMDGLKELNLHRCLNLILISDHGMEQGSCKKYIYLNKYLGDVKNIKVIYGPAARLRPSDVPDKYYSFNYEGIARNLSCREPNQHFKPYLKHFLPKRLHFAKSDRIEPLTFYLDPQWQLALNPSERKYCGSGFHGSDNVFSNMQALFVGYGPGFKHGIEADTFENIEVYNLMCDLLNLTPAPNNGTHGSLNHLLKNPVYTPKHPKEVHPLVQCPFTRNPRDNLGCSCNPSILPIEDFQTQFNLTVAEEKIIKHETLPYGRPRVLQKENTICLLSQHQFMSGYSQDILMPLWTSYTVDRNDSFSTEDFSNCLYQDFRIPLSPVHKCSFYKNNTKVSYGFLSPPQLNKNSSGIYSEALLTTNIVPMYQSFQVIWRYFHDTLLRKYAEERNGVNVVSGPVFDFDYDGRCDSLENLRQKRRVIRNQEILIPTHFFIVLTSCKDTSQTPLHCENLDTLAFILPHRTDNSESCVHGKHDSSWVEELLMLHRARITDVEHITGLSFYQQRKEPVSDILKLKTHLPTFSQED
Method: ENPP1 hydrolyzes nucleotides or nucleotide derivatives to produce nucleoside-5′-monophosphate and pyrophosphate. In addition, ENPP1 hydrolyzes 2′,3′-cGAMP to produce 5′-adenosine monophosphate (AMP) and 5′-guanosine monophosphate (GMP). AMP produced from the reaction is measured using the AMP-Glo® kit (Promega). The AMP-Glo® kit contains two reagents. The first reagent terminates the AMP-producing enzymatic reaction, removes ATP and converts the produced AMP into ADP. The second reagent converts ADP to ATP which is used to generate luminescence in the luciferase reaction. The amount of luminescence measured is proportional to the amount of AMP produced by ENPP1.
The final reaction mixture contains 50 mM Tris (pH 8.5) buffer, 250 mM NaCl, 0.5 mM CaCl2), 1 μM ZnCl2, 5% glycerol and 1% DMSO. Serially diluted ENPP1 inhibitors (typically in the range of 10 μM to 0.5 nM) were pre-stored with human recombinant ENPP1 enzymes (R & D systems) at 3 ng/reaction and room temperature (RT) for 5 to 10 minutes. The reaction was initiated by addition of cGAMP (at a final concentration of 5 μM) and reacted at 37° C. for 90 minutes. At the end of the reaction, 10 μl of the AMP-Glo first reagent was added to stop the reaction and the result was stored at room temperature for 1 hour. After storage, 20 μl of an AMP detection solution (a mixture of AMP-Glo II reagent and Kinase-Glo at a ratio of 1:100) was added and stored at room temperature for 1 hour. Luminescence signals were measured using a Victor® plate reader (Perkin Elmer). The maximal activity control (containing enzymes and substrates in the presence of 1% DMSO; MAX) and the minimal activity control (containing substrates and 1% DMSO; MIN) were evaluated simultaneously. In each experiment, serially diluted reference ENPP1 inhibitors were tested as well. IC50, indicating % residual activity versus compound concentration was determined by fitting inhibition curves using the 3-parameter analysis of GraphPad Prism® software. Serially diluted samples of one compound were tested two or more times and an average IC50 of each compound was calculated.

Compound	IC50 [2]	Cellular activity: increase in IRF3 by the compound compared to cGAMP, as fold [1]
5-(7-oxo-5,6,7,8-tetrahydro-1,8-naphthyridin-4-yl)isoindoline-2-sulfamide hydrochloride [Example 143]	–	B (1< Fold <2)
Cl.Nc1ccc(F)c(-c2ccnc3[nH]c(=O)ccc23)c1 [Example 8]	–	B (1< Fold <2)
Cl.NCc1ccc(-c2ccnc3[nH]c(=O)ccc23)cc1 [Example 10, 5-(4-(aminomethyl)phenyl)-1,8-naphthyridin-2(1H)-one hydrochloride]	< 1000 nM	B (1< Fold <2)
Cl.NCc1ccc(-c2ccnc3[nH]c(=O)ccc23)c(F)c1 [Example 11, 5-(4-(aminomethyl)-2-fluorophenyl)-1,8-naphthyridin-2(1H)-one hydrochloride]	< 1000 nM	A (>2)
Cl.NCc1ccc(-c2ccnc3[nH]c(=O)ccc23)c(F)c1F [Example 13, 5-(4-(aminomethyl)-2,3-difluorophenyl)-1,8-naphthyridin-2(1H)-one hydrochloride]	< 1000 nM	A (>2)
CC(N)c1ccc(-c2ccnc3[nH]c(=O)ccc23)cc1.Cl (centres unmarked) [Example 14, 5-(4-(1-aminoethyl)phenyl)-1,8-naphthyridin-2(1H)-one hydrochloride]	< 1000 nM	B (1< Fold <2)
C[C@@H](N)c1ccc(-c2ccnc3[nH]c(=O)ccc23)cc1.Cl [Example 15, (R)-5-(4-(1-aminoethyl)phenyl)-1,8-naphthyridin-2(1H)-one hydrochloride]	< 1000 nM	B (1< Fold <2)
CC(C)NCc1ccc(-c2ccnc3[nH]c(=O)ccc23)c(F)c1.Cl [Example 21, 5-(2-fluoro-4-((isopropylamine)methyl)phenyl)-1,8-naphthyridin-2(1H)-one hydrochloride]	> 10000 nM	B (1< Fold <2)
Cl.O=c1ccc2c(-c3ccc(CNC4CC4)cc3F)ccnc2[nH]1 [Example 22, 5-(4-((cyclopropylamino)methyl)-2-fluorophenyl)-1,8-naphthyridin-2(1H)-one hydrochloride]	1000 to 10000 nM	B (1< Fold <2)
CNCc1ccc(-c2ccnc3[nH]c(=O)ccc23)cc1F.Cl [Example 23, 5-(3-fluoro-4-((methylamino)methyl)phenyl)-1,8-naphthyridin-2(1H)-one hydrochloride]	1000 to 10000 nM	B (1< Fold <2)
CCNCc1ccc(-c2ccnc3[nH]c(=O)ccc23)cc1F.Cl [Example 24, 5-(4-((ethylamino)methyl)-3-fluorophenyl)-1,8-naphthyridin-2(1H)-one hydrochloride]	> 10000 nM	B (1< Fold <2)
NS(=O)(=O)NCc1ccc(-c2ccnc3[nH]c(=O)ccc23)cc1F [Example 41, N-(2-fluoro-4-(7-oxo-7,8-dihydro-1,8-naphthyridin-4-yl)benzyl)sulfamide]	–	B (1< Fold <2)
Cn1c(=O)ccc2c(N3CCC(CNS(N)(=O)=O)CC3)ccnc21 [Example 128, N-((1-(8-methyl-7-oxo-7,8-dihydro-1,8-naphthyridin-4-yl)piperidin-4-yl)methyl)sulfamide]	< 1000 nM	–

The next lines start with results.

IC50 [2]	Compound	Cellular activity: increase in IRF3 by the compound compared to cGAMP, as fold [1]
< 1000 nM	Cl.NCc1ccc(-c2ccnc3[nH]c(=O)ccc23)cc1F [Example 12, 5-(4-(aminomethyl)-3-fluorophenyl)-1,8-naphthyridin-2(1H)-one hydrochloride]	A (>2)
1000 to 10000 nM	Nc1cccc(-c2ccnc3c2CCC(=O)N3)c1 [Example 131, 5-(3-(aminophenyl)-3,4-dihydro-1,8-naphthyridin-2(1H)-one hydrochloride]	–
> 10000 nM	NCc1cccc(-c2ccnc3c2CCC(=O)N3)c1 [Example 132, 5-(3-(aminomethyl)phenyl)-3,4-dihydro-1,8-naphthyridin-2(1H)-one hydrochloride]	–
< 1000 nM	NCc1ccc(-c2ccnc3c2CCC(=O)N3)cc1 [Example 133, 5-(4-(aminomethyl)phenyl)-3,4-dihydro-1,8-naphthyridin-2(1H)-one hydrochloride]	–
< 1000 nM	CC(C)(N)c1ccc(-c2ccnc3c2CCC(=O)N3)cc1 [Example 134, 5-(4-(2-aminopropan-2-yl)phenyl)-3,4-dihydro-1,8-naphthyridin-2(1H)-one hydrochloride]	–
> 10000 nM	O=C1CCc2c(-c3ccc4c(c3)CNCC4)ccnc2N1 [Example 135, 5-(1,2,3,4-tetrahydroisoquinolin-7-yl)-3,4-dihydro-1,8-naphthyridin-2(1H)-one hydrochloride]	–
1000 to 10000 nM	CC(C)(C)OC(=O)NS(=O)(=O)N1CCc2ccc(-c3ccnc4c3CCC(=O)N4)cc2C1 [Example 138, tert-butyl((7-(7-oxo-5,6,7,8-tetrahydro-1,8-naphthyridin-4-yl)-3,4-diisoquinoline-2(1H)-yl)sulfonyl)carbamate]	–
< 1000 nM	NS(=O)(=O)Nc1cccc(-c2ccnc3c2CCC(=O)N3)c1 [Example 139, N-(3-(7-oxo-5,6,7,8-tetrahydro-1,8-naphthyridin-4-yl)phenyl)sulfamide]	–
< 1000 nM	NS(=O)(=O)NCc1ccc(-c2ccnc3c2CCC(=O)N3)cc1 [Example 141, N-(4-(7-oxo-5,6,7,8-tetrahydro-1,8-naphthyridin-4-yl)benzyl)sulfamide]	–
< 1000 nM	NS(=O)(=O)N1CCc2ccc(Nc3ccnc4c3CCC(=O)N4)cc2C1 [Example 144, (7-(7-oxo-5,6,7,8-tetrahydro-1,8-naphthyridin-4-yl)amino)-3,4-dihydroisoquinoline-2(1H)-sulfamide hydrochloride]	–
1000 to 10000 nM	CS(=O)(=O)NCc1cccc(-c2ccnc3c2CCC(=O)N3)c1 [Example 146, N-(3-(7-oxo-5,6,7,8-tetrahydro-1,8-naphthyridin-4-yl)benzyl)methanesulfonamide]	–
< 1000 nM	Cc1ccc(S(=O)(=O)NCc2cccc(-c3ccnc4c3CCC(=O)N4)c2)cc1 [Example 147, 4-methyl-N-(3-(7-oxo-5,6,7,8-tetrahydro-1,8-naphthyridin-4-yl)benzyl)benzenesulfonamide]	–

— patent publication US20240140944A1, “NOVEL NAPHTHYRIDINONE DERIVATIVE HAVING INHIBITORY ACTIVITY AGAINST ECTONUCLEOTIDE PYROPHOSPHATASE-PHOSPHODIESTERASE AND USE THEREOF” (TXINNO BIOSCIENCE INC., priority 2020, published 2024)
